{"source": "patent US20260085070A1", "about": "“HETEROCYCLIC CBL-B INHIBITORS FOR THE TREATMENT OF CANCER” (HOTSPOT THERAPEUTICS, INC., priority 2022, published 2026)", "target": "T1, Cbl-b (Homo sapiens, UniProt Q13191)", "T1 construct": "Biotin (biotinylated protein)", "T1 sequence (Q13191 10-426)": "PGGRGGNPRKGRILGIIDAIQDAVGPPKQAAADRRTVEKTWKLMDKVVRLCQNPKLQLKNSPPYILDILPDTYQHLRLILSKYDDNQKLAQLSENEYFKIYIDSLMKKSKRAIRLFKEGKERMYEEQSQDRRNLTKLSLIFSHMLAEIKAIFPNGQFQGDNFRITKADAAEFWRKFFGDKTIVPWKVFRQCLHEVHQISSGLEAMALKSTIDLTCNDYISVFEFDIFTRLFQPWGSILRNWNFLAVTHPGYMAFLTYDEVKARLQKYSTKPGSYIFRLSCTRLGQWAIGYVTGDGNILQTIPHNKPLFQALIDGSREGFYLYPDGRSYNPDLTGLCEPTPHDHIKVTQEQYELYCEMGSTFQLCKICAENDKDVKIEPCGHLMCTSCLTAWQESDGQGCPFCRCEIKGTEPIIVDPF", "experiment": "Cbl-b LCK Ub TR-FRET assay", "type": "biochemical", "details": "Biotin-Cbl-b, His-LCK; no LCK as low control, DMSO as high control; IC50s binned A through C; read-out: CBL-B_TR-FRET_AVG_IC50", "experimental": "Compounds are 3-told serially diluted in DMSO in a 384-well polypropylene plate (e.g., #P-05525-BC; Labcyte) to generate a source plate with 10 concentrations of each compound, top concentration=2 mM. 80 nL of DMSO or compounds are transferred to each well of a black 384-well ProxiPlate (e.g., #6008260; PerkinElmer) using a Labcyte Echo. 1× assay buffer (50 mM HEPES pH7.0, 100 mM NaCl, 0.01% BSA, 0.01% Triton-X100, 1 mM DTT), 2× enzyme solution (16 nM Biotin-Cbl-b or 12 nM Biotin-c-Cbl in 1× assay buffer), 2× kinase mixture (120 nM His-LCK, 1 mM ATP, 10 mM MgCl2 in assay buffer) and 2.33× detection mixture (4.66× solution 1:163 nM Anti-HA-D2 antibody (e.g., #610HADAB; PerkinElmer), 27.96 nM Streptavidin-EU (e.g., #AD0062; PerkinElmer), 1.398 mM EDTA in 1× assay buffer+4.66× solution 2: […] UBE2D2/Methylated-HA-Ubiquitin thioester adduct (e.g., BostonBiochem) in 1× assay buffer) are prepared. […] of 2× enzyme solution are added to each well containing compound, briefly centrifuged to mix, and incubated for 60 min at room temperature. […] of 2× kinase mixture is added, briefly centrifuged to mix, and incubated for 90 min. at room temperature. […] of detection mixture is added to all wells and briefly centrifuged before incubating for 20 min at room temperature. Plates are read for TR-FRET using an Envision at excitation 340 nm, emission at 615 and 665 nm, 4 flashes per well. IC50 is generated using no LCK as the low control and DMSO as the high control. Compound IC50s were binned into A through C as follows: A indicates <100 nM, B indicates 100 nM-500 nM, and C indicates >500 nM.", "data": [{"compound": "Cn1cnnc1-c1cc(F)ccc1-c1cccc(-n2cc3c(C(F)(F)F)cc(CNCC4(O)CCC4)cn3c2=O)c1", "note": "[Compound 1]", "values": [{"measurement": "IC50", "result": "< 100", "unit": "nM"}]}, {"compound": "C[C@H]1CCCN(Cc2cc(C(F)(F)F)c3cn(-c4cc(-c5ccc(F)cc5-c5nncn5C)cc(C5CC5)n4)c(=O)n3c2)C1", "note": "[Compound 2]", "values": [{"measurement": "IC50", "result": "> 500", "unit": "nM"}]}, {"compound": "C[C@H]1CCCN(Cc2cc(C(F)(F)F)c3cn(-c4cc(-c5ccc(F)cc5-c5nncn5C)cc(Br)n4)c(=O)n3c2)C1", "note": "[Compound 4]", "values": [{"measurement": "IC50", "result": "> 500", "unit": "nM"}]}, {"compound": "C[C@H]1CCCN(Cc2cc(C(F)(F)F)c3cn(-c4cc(-c5ccc(F)cc5-c5nncn5C)cc(Cl)n4)c(=O)n3c2)C1", "note": "[Compound 3]", "values": [{"measurement": "IC50", "result": "> 500", "unit": "nM"}]}]}
